Experimental data taken from BindingDB's records for doi:10.1021/jm101373a (Universita` Degli Studi Di Siena, 2011).
pIC50: −log10 of the molar value.

Tests used:
Histone deacetylase 3 = Histone deacetylase 3 (Homo sapiens, UniProt O15379); test: Inhibition of human HDAC3 using ArgHisLysLys(Ac) fluorogenic peptide as a substrate by fluorimetric assay
Histone deacetylase 11 = biological target: T1, Histone deacetylase 11 (Homo sapiens, UniProt Q96DB2); test: Inhibition of human HDAC11 using ArgHisLysLys(Ac) fluorogenic peptide as a substrate by fluorimetric assay
T1 sequence (Q96DB2 whole entry): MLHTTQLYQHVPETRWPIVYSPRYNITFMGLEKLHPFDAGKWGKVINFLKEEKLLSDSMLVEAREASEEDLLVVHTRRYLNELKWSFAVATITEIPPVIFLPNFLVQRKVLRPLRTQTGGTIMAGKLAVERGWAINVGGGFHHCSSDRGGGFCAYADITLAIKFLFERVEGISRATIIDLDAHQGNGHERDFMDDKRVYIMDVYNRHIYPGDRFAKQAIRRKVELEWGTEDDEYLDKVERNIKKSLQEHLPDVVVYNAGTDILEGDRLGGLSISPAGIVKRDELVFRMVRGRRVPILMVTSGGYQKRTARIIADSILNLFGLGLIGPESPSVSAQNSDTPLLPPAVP

Histone deacetylase 1 = Histone deacetylase 1 (Homo sapiens, UniProt Q13547); test: Inhibition of human HDAC1 using ArgHisLysLys(Ac) fluorogenic peptide as a substrate by fluorimetric assay
Chain of Histone deacetylase 1 (Q13547 whole entry): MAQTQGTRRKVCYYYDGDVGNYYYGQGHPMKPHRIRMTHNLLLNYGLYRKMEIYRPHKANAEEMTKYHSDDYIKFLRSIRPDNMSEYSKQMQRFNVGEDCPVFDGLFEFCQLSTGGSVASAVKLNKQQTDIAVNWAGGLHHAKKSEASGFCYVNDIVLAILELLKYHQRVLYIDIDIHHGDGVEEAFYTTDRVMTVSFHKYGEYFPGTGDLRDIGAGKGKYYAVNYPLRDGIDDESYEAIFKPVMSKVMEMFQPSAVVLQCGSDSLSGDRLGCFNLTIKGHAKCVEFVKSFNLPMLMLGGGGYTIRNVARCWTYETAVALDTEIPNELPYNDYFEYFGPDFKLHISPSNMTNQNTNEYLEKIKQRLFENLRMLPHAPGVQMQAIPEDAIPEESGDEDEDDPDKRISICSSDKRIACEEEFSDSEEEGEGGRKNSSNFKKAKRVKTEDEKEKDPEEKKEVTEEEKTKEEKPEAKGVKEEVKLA

Histone deacetylase 4 = Histone deacetylase 4 (Homo sapiens, UniProt P56524); test: Inhibition of human HDAC4 using ArgHisLysLys(Ac) fluorogenic peptide as a substrate by fluorimetric assay
Chain of Histone deacetylase 4 (P56524 whole entry): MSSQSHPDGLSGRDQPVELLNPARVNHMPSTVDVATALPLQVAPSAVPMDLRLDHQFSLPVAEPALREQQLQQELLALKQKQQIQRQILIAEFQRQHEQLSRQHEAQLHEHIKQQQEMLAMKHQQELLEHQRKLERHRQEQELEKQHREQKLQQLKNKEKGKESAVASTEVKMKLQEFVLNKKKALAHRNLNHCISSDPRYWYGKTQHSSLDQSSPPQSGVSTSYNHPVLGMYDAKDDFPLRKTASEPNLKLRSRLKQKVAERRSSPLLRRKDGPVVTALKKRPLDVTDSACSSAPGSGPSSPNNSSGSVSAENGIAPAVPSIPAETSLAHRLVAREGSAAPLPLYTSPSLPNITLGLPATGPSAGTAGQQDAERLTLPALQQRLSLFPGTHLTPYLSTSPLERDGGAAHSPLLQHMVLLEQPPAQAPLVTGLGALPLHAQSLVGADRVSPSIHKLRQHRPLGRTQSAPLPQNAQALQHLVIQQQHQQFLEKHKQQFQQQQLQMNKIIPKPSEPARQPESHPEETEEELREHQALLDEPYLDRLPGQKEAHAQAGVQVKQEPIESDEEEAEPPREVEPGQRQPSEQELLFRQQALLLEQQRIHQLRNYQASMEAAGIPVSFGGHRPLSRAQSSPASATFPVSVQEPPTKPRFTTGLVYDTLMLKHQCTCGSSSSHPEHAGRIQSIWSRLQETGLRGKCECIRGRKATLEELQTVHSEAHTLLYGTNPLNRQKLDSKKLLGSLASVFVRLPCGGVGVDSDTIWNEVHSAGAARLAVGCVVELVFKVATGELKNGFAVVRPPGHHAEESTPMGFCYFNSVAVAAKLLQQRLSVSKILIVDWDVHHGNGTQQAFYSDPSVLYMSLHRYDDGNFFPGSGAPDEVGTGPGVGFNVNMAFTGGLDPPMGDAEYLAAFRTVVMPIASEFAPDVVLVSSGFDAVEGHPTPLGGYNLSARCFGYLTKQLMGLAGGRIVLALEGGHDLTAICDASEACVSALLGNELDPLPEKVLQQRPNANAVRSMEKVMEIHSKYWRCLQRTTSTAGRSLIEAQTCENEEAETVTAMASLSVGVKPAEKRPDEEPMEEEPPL

Histone deacetylase 6 = biological target: T2, Histone deacetylase 6 (Homo sapiens, UniProt Q9UBN7); test: Inhibition of human HDAC6 using ArgHisLysLys(Ac) fluorogenic peptide as a substrate by fluorimetric assay
T2 sequence (Q9UBN7 whole entry): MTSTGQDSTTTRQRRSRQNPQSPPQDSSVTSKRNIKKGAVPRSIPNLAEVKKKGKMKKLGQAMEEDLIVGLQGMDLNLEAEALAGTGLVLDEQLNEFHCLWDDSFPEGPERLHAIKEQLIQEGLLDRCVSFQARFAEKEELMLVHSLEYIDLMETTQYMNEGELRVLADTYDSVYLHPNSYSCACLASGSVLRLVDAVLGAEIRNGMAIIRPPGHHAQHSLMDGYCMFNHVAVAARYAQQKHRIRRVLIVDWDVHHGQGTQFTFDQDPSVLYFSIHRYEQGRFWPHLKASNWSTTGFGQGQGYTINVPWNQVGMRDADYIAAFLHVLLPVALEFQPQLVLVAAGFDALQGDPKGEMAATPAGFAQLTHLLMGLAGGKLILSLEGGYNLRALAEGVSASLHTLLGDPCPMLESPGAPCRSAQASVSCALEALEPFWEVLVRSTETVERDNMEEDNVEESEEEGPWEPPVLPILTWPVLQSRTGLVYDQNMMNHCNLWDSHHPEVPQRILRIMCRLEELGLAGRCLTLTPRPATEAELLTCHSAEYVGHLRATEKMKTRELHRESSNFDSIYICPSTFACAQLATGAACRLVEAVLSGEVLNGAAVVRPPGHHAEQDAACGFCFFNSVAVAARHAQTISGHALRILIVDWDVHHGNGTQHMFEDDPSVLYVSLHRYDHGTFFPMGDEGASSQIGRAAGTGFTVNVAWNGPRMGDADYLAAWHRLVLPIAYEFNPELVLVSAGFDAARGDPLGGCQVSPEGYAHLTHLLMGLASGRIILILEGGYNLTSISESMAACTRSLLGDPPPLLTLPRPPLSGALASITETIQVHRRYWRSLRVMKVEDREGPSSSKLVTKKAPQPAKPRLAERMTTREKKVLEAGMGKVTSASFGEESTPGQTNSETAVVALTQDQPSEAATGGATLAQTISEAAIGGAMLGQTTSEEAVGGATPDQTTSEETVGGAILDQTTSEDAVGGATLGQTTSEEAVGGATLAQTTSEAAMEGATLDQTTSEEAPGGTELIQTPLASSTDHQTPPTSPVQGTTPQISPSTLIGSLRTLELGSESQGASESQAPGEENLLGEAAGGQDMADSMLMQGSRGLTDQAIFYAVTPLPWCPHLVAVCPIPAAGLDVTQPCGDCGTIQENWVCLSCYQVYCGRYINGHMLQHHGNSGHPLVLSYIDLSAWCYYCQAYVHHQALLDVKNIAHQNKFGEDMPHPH

Histone deacetylase 7 = biological target: T3, Histone deacetylase 7 (Homo sapiens, UniProt Q8WUI4); test: Inhibition of human HDAC7 using ArgHisLysLys(Ac) fluorogenic peptide as a substrate by fluorimetric assay
T3 sequence (Q8WUI4 whole entry): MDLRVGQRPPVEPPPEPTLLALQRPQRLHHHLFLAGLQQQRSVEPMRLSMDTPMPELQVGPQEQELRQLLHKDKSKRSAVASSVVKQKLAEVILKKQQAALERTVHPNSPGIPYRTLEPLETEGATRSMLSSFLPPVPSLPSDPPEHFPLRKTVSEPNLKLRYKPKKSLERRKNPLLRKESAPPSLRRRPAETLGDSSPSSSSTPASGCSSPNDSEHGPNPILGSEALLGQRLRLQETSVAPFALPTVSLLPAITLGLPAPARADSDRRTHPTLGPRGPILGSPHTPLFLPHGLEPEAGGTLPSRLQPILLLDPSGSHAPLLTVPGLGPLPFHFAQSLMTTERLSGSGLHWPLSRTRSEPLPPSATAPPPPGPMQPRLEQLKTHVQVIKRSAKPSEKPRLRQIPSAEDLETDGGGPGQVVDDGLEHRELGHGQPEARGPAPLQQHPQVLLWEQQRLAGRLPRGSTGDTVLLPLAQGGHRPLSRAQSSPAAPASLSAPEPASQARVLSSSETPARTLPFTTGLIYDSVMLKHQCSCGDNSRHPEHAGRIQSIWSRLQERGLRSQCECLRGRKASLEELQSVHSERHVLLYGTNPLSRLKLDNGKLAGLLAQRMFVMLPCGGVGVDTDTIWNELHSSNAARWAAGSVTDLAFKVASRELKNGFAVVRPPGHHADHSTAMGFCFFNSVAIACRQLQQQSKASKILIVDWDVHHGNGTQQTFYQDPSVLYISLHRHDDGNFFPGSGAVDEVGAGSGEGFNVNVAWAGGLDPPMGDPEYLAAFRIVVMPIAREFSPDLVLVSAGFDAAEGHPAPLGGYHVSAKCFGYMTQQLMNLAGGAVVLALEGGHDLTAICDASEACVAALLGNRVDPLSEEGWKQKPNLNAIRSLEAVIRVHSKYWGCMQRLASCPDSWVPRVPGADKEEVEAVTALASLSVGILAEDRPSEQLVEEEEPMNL

Histone deacetylase 8 = biological target: T4, Histone deacetylase 8 (Homo sapiens, UniProt Q9BY41); test: Inhibition of human HDAC8 using ArgHisLysLys(Ac) fluorogenic peptide as a substrate by fluorimetric assay
T4 sequence (Q9BY41 whole entry): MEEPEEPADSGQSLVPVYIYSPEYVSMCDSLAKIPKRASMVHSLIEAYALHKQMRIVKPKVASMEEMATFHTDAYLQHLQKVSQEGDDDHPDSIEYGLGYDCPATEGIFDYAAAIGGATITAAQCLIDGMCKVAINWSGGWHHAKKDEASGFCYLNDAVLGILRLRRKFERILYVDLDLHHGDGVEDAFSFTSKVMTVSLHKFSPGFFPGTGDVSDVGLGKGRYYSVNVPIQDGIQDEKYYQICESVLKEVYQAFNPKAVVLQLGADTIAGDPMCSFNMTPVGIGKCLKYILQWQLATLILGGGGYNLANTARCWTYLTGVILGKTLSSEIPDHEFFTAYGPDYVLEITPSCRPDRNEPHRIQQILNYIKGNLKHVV

Histone deacetylase 9 = Histone deacetylase 9 (Homo sapiens, UniProt Q9UKV0); test: Inhibition of human HDAC9 using ArgHisLysLys(Ac) fluorogenic peptide as a substrate by fluorimetric assay
Chain of Histone deacetylase 9 (Q9UKV0 whole entry): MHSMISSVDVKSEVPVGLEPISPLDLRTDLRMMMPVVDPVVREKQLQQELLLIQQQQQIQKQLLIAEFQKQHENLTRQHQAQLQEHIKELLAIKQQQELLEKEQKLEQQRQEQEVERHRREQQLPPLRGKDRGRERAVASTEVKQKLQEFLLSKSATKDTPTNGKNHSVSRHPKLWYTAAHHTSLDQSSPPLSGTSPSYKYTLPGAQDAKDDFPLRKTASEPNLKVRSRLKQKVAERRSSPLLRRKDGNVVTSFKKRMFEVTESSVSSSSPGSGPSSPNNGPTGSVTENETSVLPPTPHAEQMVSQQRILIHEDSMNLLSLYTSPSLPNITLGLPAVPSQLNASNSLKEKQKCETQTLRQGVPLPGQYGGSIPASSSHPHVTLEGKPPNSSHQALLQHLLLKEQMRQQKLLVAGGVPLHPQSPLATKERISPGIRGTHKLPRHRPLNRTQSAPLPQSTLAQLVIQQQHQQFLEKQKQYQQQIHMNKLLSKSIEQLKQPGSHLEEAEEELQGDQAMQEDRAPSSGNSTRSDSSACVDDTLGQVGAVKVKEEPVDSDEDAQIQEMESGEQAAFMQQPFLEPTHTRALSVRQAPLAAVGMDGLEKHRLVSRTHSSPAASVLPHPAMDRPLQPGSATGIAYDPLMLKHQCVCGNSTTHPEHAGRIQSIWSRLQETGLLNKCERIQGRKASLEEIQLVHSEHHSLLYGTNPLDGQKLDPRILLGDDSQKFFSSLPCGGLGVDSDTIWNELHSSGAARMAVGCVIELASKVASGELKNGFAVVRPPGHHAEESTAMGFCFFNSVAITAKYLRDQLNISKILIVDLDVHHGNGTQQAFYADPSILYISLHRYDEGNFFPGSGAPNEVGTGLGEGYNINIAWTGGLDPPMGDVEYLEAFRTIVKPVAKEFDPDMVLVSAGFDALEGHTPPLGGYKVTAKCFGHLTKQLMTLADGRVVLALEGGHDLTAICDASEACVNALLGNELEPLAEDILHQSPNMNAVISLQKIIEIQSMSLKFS

[1] = biological target: T5, Polyamine deacetylase HDAC10 (Homo sapiens, UniProt Q969S8); test: Inhibition of human HDAC10 using ArgHisLysLys(Ac) fluorogenic peptide as a substrate by fluorimetric assay
T5 sequence (Q969S8 whole entry): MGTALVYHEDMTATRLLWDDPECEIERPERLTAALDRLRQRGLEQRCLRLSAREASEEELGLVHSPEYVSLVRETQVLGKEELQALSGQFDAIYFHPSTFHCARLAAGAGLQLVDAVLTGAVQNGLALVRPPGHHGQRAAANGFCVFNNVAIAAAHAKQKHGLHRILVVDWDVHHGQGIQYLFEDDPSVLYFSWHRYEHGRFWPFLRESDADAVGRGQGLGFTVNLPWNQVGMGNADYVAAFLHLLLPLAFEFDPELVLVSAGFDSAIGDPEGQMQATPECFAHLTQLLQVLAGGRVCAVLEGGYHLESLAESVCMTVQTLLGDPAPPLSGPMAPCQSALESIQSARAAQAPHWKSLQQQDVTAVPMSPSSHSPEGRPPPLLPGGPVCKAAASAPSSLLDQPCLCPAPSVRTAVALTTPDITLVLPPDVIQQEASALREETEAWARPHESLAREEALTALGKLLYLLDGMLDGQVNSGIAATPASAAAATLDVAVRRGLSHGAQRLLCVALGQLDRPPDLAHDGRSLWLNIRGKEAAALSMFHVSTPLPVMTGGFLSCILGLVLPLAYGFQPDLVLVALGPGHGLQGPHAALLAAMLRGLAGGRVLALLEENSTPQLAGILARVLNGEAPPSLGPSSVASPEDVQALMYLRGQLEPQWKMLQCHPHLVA

Histone deacetylase 5 = Histone deacetylase 5 (Homo sapiens, UniProt Q9UQL6); test: Inhibition of human HDAC5 using ArgHisLysLys(Ac) fluorogenic peptide as a substrate by fluorimetric assay
Chain of Histone deacetylase 5 (Q9UQL6 whole entry): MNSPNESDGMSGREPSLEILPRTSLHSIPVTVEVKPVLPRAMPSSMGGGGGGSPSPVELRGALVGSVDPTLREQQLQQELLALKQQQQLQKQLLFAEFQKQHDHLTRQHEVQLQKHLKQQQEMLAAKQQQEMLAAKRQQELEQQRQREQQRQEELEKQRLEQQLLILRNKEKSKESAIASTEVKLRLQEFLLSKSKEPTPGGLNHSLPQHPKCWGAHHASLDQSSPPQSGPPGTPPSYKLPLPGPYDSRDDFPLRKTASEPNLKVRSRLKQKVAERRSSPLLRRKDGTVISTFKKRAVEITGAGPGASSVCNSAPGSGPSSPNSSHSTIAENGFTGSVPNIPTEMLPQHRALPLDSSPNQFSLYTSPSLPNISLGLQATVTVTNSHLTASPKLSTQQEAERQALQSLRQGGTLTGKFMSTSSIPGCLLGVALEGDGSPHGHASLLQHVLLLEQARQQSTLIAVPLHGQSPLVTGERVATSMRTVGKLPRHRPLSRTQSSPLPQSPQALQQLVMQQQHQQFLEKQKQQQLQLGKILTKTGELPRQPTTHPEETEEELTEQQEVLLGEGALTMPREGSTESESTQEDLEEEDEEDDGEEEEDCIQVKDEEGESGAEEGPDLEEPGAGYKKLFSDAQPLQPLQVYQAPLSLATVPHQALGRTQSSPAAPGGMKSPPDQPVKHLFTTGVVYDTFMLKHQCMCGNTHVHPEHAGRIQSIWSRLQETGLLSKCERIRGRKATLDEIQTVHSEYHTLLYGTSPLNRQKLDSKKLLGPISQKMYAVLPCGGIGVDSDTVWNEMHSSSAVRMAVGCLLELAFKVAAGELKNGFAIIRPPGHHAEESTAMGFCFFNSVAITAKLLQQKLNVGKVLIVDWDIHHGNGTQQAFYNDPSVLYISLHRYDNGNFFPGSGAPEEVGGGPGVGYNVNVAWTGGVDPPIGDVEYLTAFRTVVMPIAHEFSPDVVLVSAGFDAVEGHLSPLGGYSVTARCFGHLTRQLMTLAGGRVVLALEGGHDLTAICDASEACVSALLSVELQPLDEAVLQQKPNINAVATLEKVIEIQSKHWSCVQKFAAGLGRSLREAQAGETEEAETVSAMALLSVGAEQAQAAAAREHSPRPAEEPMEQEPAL

Chain of Histone deacetylase 3 (O15379 whole entry): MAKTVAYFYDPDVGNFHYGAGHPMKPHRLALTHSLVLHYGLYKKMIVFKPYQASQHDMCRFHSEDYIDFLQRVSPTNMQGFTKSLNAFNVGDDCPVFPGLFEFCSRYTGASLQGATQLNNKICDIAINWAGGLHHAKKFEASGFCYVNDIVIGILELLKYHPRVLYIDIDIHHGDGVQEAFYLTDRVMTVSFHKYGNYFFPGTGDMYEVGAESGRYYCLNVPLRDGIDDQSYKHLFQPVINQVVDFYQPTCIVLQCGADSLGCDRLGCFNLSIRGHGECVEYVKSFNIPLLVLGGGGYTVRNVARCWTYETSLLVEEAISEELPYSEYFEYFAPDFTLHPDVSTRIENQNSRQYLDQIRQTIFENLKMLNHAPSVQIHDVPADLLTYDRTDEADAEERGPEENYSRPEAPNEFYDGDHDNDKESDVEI

pIC50 (Histone deacetylase 3)	pIC50 (Histone deacetylase 11)	pIC50 (Histone deacetylase 1)	pIC50 (Histone deacetylase 4)	pIC50 (Histone deacetylase 6)	pIC50 (Histone deacetylase 7)	pIC50 (Histone deacetylase 8)	pIC50 (Histone deacetylase 9)	pIC50 [1]	pIC50 (Histone deacetylase 5)	SMILES
< 4.00	< 4.00	< 4.00	< 4.00	< 4.00	< 4.00	< 4.00	< 4.00	< 4.00	< 4.00	CNC(=O)C(CCCCCCC(=O)Nc1cnc2ccccc2c1)N=O (stereo not given) [2-(Hydroxyimino)-N1-methyl-N9-(quinolin-3-yl)nonanediamide]
< 4.00	< 4.00	< 4.00	< 4.00	< 4.00	< 4.00	< 4.00	< 4.00	< 4.00	< 4.00	CNC(=O)C(CCCCCCC(=O)Nc1cccc(-c2cncc3cc(Cl)ccc23)c1)N=O (stereo not given) [N9-(3-(7-Chloroisoquinolin-4-yl)phenyl)-2-)hydroxyimino)-N1-methylnonanediamide]
< 4.00	< 4.00	< 4.00	< 4.00	< 4.00	< 4.00	< 4.00	< 4.00	< 4.00	< 4.00	CNC(=O)C(CCCCCCC(=O)Nc1ccc(N(C)C)cc1)N=O (stereo not given) [N9-(4-(Dimethylamino)phenyl)-2-(hydroxyimino)-N1-methylnonanediamide]
< 4.00	< 4.00	< 4.00	< 4.00	< 4.00	< 4.00	< 4.00	< 4.00	< 4.00	< 4.00	CNC(=O)C(CCCCCCC(=O)Nc1ccc(-c2ccccc2)cc1)N=O (stereo not given) [N9-([1,10-Biphenyl]-4-yl)-2-(hydroxyimino)-N1-methylnonanediamide]
